Values after ≈ are worked out from the molar mass of the structure shown.
Tests used:
Assay type in all cases: functional, cell-based
KB [1] = test: Cytotoxic activity against KB human nasopharyngeal carcinoma cells
HT-29 = test: Cytotoxic activity against HT-29 human colon adenocarcinoma cells
DA-3 cell line = test: Cytotoxic activity against DA-3 mouse mammary adenocarcinoma cells
B16-F10 = test: Cytotoxic activity against B16F10 mouse melanoma cells
KB [2] = test: Cytotoxic activity against KBV vinblastine resistant KB cells; settings: Homo sapiens
KB [3] = test: Cytotoxic activity against Human nasopharyngeal KB cell line

COc1ccc(C[C@H]2NC(=O)/C=C/C[C@@H]([C@H](C)[C@H]3O[C@@H]3c3ccccc3)OC(=O)[C@H](CC(C)C)OC(=O)[C@H](C)CNC2=O)cc1Cl [CRYPTOPHYCIN A]
IC50 (KB [1]): 4 pM
IC50 (HT-29): 2 pM
IC50 (DA-3 cell line): 2 pM
IC50 (B16-F10): 30 pM
IC50 (KB [2]): 35 pM
IC50 (KB [3]): 0.005 ng/mL (≈ 0.00763 nM)

— ChEMBL document CHEMBL1128913, “Synthesis and in vitro cytotoxicity of cryptophycins and related analogs” (Bioorg Med Chem Lett, 1996)
